≈ marks a conversion by molar mass, not a printed value. Entries after “also recorded” stand apart in the source; their conditions may differ. Where two headings read alike, the source gives them in different places.
How the values were obtained:
[1] = system: primary AML cell line; test: Apoptosis assay on primary AML cell lines; assay type: cell-based; settings: primary AML cells, 1.0, 5.0 or 10.0 μM
Description: (§1) Cells were probed with DAPI and a FITC-labeled anti-Annexin-V antibody. FACS analysis was performed to determine the number of viable cells and the number of cells in early apoptosis, late apoptosis and undergoing necrosis and the results were plotted.

[2] = system: Mel-Ho (V600E); test: Combination with PLX4032 in Mel-Ho; assay type: cell-based
[3] = system: Molm13, OCI/AML3, Molm14, HL60 and ML2 cell lines; test: Clonogenicity assay on AML cell lines; assay type: cell-based; settings: p53 wild type cell lines, 1.0 μM
Description: A clonogenicity assay was then performed and the number of clonies was counted (FIG. 6).

[4] = system: A375; test: Cell viability, A375 melanoma cell line (single agents and combinations); assay type: cell-based, human; settings: for combination effect with PLX4032 (Zelboraf, vemurafenib): B-Raf-mutant melanoma cell line A375
[5] = system: p53-pathway; test: Western blot of p53-pathway, Molm13, OCI/AML3, Molm14 and ML2 cell lines; assay type: cell-based; settings: Molm13, OCI/AML3, Molm14 and ML2, 1.0 μM
Description: The Molm13, OCI/AML3, Molm14 and ML2 cell lines were treated with vehicle or 1.0 μM Aileron peptide (FIG. 1B).

[6] = system: p53; test: p53 stabilization in AML cells (Western blot, dose and time); assay type: cell-based; settings: AML p53 wild type cell lines, 0.1-10.0 μM, 24, 48 or 72 hrs
Description: (§2) Lysates were subjected to SDS-PAGE and probed by Western blotting with antibodies specific to MDM2, p53, p21, and β-Actin.

[7] = system: DOHH-2; test: WST-1 / MTT cell viability, DOHH-2; assay type: cell-based, human
Description: Initially, various DOHH-2 cell numbers were plated and evaluated 3-7 days later to determine the optimal number of cells to be plated and treatment duration.
(§3) A drug combination index plot was used to assess the synergistic, additive, or antagonistic properties of each combination treatment. […] Combination index (CI) values were calculated using the CompuSyn software. The data were expressed as log(CI).

[8] = system: MCF-7; test: CyQUANT cell viability, MCF-7; assay type: cell-based, human; settings: MCF-7, sequential treatment, 72 hrs
Description: Cells were also evaluated for viability using the CyQUANT method after beginning treatment (FIGS. 78A and 79A). Cells were evaluated for viability using the CyQUANT method after beginning the simultaneous treatments (FIGS. 78B and 79B). […] The data were expressed as log(CI).
The anticancer activity of the combination treatment was assessed based on the order of addition of the drugs.

[9] = system: MOLT-3; test: WST-1 / MTT cell proliferation assay, MOLT-3; assay type: cell-based, human
Description: All media were supplemented with 10% (v/v) fetal calf serum, 100 units penicillin and 100 μg/ml streptomycin at 37° C. and 5% CO2.
(§4) One day prior to assaying, cells were trypsinized, counted and seeded at pre-determined densities in 96-well plates as follows: MCF-7, 5000 cells/well/200 μl; MOLT-3, 30,000 cells/well/200 μl. […] The WST-1 variant of the MTT assay was used to measure cell viability according to the manufacturer's protocol. WST-1 is a cell-impermeable, sulfonated tetrazolium salt that can be used to examine cell viability without killing the cells.
Initially, various MOLT-3 cell numbers were plated and evaluated 3-7 days later to determine the optimal number of cells to be plated and treatment duration.
Cells were evaluated for viability by WST-1 assay or MTT assay 3-7 days after beginning the sequential treatment (FIGS. 33 and 34).
Cells were evaluated for viability by WST-1 assay or MTT assay 3-7 days after beginning treatment with rituximab (FIGS. 68B and 69B) or romidepsin (FIGS. 71B and 72B).

[10] = system: p53-pathway; test: Western blot of p53-pathway, primary AML cells; assay type: cell-based; settings: 1.0 or 5.0 μM
Description: as §2

[11] = system: primary AML cell line; test: Clonogenicity assay on primary AML cell lines; assay type: cell-based; settings: 0.1-1.0 μM
Description: A clonogenicity assay was then performed and the number of clonies was counted.

[12] = system: p53-pathway; test: mRNA expression of p21, MDM2, Puma, Bax, Gadd45a in Molm13 and Oci/AML3; assay type: cell-based; settings: Molm13 and Oci/AML3, 0.1-10.0 μM
Text: Expression levels were normalized to GAPDH mRNA expression levels.

[13] = system: Molm13, OCI/AML3, Molm14, HL60 and ML2 cell lines; test: Apoptosis assay of AML cell lines (DAPI / Annexin-V FACS); assay type: cell-based; settings: p53 wild type AML cell lines, 1.0, 5.0 or 10.0 μM
Description: as §1

[14] = system: MV4-11; test: WST-1 / MTT cell viability, MV4-11
Description: Initially, various MV4-11 cell numbers were plated and evaluated 3-7 days later to determine the optimal number of cells to be plated and treatment duration.
Cells were evaluated for viability by WST-1 assay or MTT assay 3-7 days after beginning treatment.
as §3

[15] = system: AML cell lines; test: Cellular proliferation in AML cells treated with Ara-C; assay type: cell-based; settings: Ara-C alone
[16] = system: MCF-7 breast cancer xenograft; test: MCF-7 breast cancer xenograft study, tumor growth inhibition; settings: 30 mg/kg three times per week iv
Description: This formulation was prepared once for the duration of the study.
Each group was assigned to a different treatment regimen.
During the dosing period the mice were weighed and tumors measured 1-2 times per week.

[17] = MCF-7 breast cancer xenograft study, body weight and deaths; assay type: in vivo, mice
Text: A negative control stapled peptide.

[18] = system: SJSA-1; test: Cell viability assay (MTT), SJSA-1
[19] = FIGURE 19
Text: Table printed on a drawing sheet, FIGURE 19
First reader's note: The table is an inset in a plot of solubility against the number of amino acids C-terminal to the cross-link.

[20] = system: MCF-7; test: WST-1 / MTT cell proliferation assay, MCF-7 (single agents and combinations); assay type: cell-based, human; settings: single agent, 5 days
Description: All media were supplemented with 10% (v/v) fetal calf serum, 100 units penicillin and 100 μg/ml streptomycin at 37° C. and 5% CO2. Prior to dosing, MCF-7 cells were switched to serum free medium and grown at 37° C. overnight.
as §4
Combination index (CI) values were calculated using the CompuSyn software. The data were expressed as log(CI).
Cells were evaluated for viability by WST-1 assay or MTT assay 3-7 days after beginning the simultaneous treatments (FIGS. 25, 30 and 31).
Cells were evaluated for viability by WST-1 assay or MTT assay 3-7 days or 120 hrs after beginning treatment (FIGS. 24A and 35). […] Cells were evaluated for viability by WST-1 assay or MTT assay 3-7 days after beginning the simultaneous treatments (FIGS. 36 and 37).

[21] = DOHH-2, sequential treatment, 72 hrs
[22] = MV4-11, sequential treatment, 72 hrs

## CC(=O)N[C@@H](CC(C)C)C(=O)N[C@H](C(=O)N[C@@H](Cc1ccccc1)C(=O)N[C@]1(C)CCCCCCC=CCCC[C@@](C)(C(=O)N[C@@H](C)C(=O)N[C@@H](C)C(=O)N[C@@H](C)C(=O)N[C@@H](C)C(=O)N[C@@H](C)C(=O)N[C@H](C)C(N)=O)NC(=O)[C@H](CC(C)C)NC(=O)[C@H](CCC(N)=O)NC(=O)[C@H](C)NC(=O)[C@H](Cc2c[nH]c3ccccc23)NC(=O)[C@H](Cc2ccc(O)cc2)NC(=O)[C@H](CCC(=O)O)NC1=O)[C@@H](C)O [Aileron peptide 1]
[1]
  apoptotic cell death: induces apoptotic cell death
[2]
  combination effect with PLX4032 (Zelboraf): synergy
[3]
  clonogenic capacity: inhibited their clonogenic capacity
[4]
  combination effect with PLX4032 (Zelboraf, vemurafenib): synergy
[4]; listed as AP1
  combination effect with PLX4032 (Zelboraf, vemurafenib): additive or better complimentarity
[4]; single agent, read-out: EC50 on A375 cells
  EC50: 70 nM
[5]
  activation of the p53-pathway: activates the p53-pathway
[6]
  p53 stabilization: stabilizes p53 in a time and dose dependant manner
[7]; DOHH-2 (figure legends), listed as AP1
  combination effect of AP1 with rituximab: complementary in vitro anticancer activity; also recorded: additive or better complimentarity
[7]; [21]
  order of addition: effect on cell growth, AP1 and CTX: suppressed DOHH-2 cell growth with or without CTX
  order of addition: effect on cell growth, AP1 and VCR: suppressed DOHH-2 cell growth with or without VCR
[7]; DOHH-2, listed as AP1
  combination effect of AP1 with CTX: complementary in vitro anticancer activity; also recorded: synergistic; also recorded: additive or better complimentarity
  combination effect of AP1 with VCR: complementary in vitro anticancer activity; also recorded: mostly synergistic; also recorded: additive or better complimentarity
[7]; single agent, read-out: EC50 on DOHH-2 cells
  EC50: 60 nM
[8]
  order of addition: effect on cell growth, AP1 and palbociclib: suppressed MCF-7 cell growth with or without palbociclib
[9]
  combination effect of AP1 with romidepsin: enhances Aileron peptide 1 inhibition of cancer cell proliferation and cell killing
[9]; listed as AP1
  combination effect of AP1 with romidepsin: complementary in vitro anticancer activity; also recorded: mostly additive complimentarity
[10]
  activation of the p53-pathway: activates the p53-pathway
[11]
  clonogenic capacity: inhibited its clonogenic capacity to a higher extent
[12]
  activation of the p53-pathway (mRNA normalized to GAPDH): activates the p53-pathway
[13]
  apoptotic cell death: induces apoptotic cell death
[14]; [22]
  order of addition: effect on cell growth, AP1 and Ara-C: suppressed MV4-11 cell growth with or without Ara-C
  order of addition: effect on cell growth, AP1 and azacitidine: suppressed MV4-11 cell growth with or without azacitidine
  order of addition: effect on cell growth, AP1 and decitabine: suppressed MV4-11 cell growth with or without decitabine
  order of addition: effect on cell growth, AP1 and midostaurin: suppressed MV4-11 cell growth with or without midostaurin
[14]; MV4-11, listed as AP1
  combination effect of AP1 with Ara-C: complementary in vitro anticancer activity; also recorded: mostly additive with some degree of synergy; also recorded: additive or better complimentarity
  combination effect of AP1 with azacitidine: complementary in vitro anticancer activity; also recorded: mostly additive with some synergy; also recorded: additive or better complimentarity
  combination effect of AP1 with decitabine: complementary in vitro anticancer activity; also recorded: mostly additive; also recorded: additive or better complimentarity
  combination effect of AP1 with midostaurin: complementary in vitro anticancer activity; also recorded: mostly synergistic; also recorded: additive or better complimentarity

## Nc1ccn([C@@H]2O[C@H](CO)[C@@H](O)[C@@H]2O)c(=O)n1 [Ara-C, cytarabine, reference compound]
[15]
  proliferation of AML cell lines: inhibits proliferation of AML cell lines
[14]; [22]
  order of addition: effect on cell growth, AP1 and Ara-C: suppressed MV4-11 cell growth with or without AP1

## CC(=O)N[C@@H](CC(C)C)C(=O)N[C@H](C(=O)N[C@@H](C)C(=O)N[C@]1(C)CCCCCCC=CCCC[C@@](C)(C(=O)N[C@@H](CO)C(=O)N[C@@H](C)C(=O)N[C@@H](C)C(N)=O)NC(=O)[C@H](CC2CCC2)NC(=O)[C@H](CCC(N)=O)NC(=O)[C@H](C)NC(=O)[C@H](Cc2c[nH]c3ccccc23)NC(=O)[C@H](Cc2ccc(O)cc2)NC(=O)[C@H](CCC(=O)O)NC1=O)[C@@H](C)O [SP252]
[16]
  TGI by Day 32: 88%
[17]; 30 mg/kg 3x/wk iv, Days 18-39
  % BW Change: +3.3%
  No. with ≥10% BW Loss: 0/10
  No. with ≥20% BW Loss or death: 0/10
[17]; 30 mg/kg three times per week iv
  tolerability of dosing regimen: well-tolerated with no body weight loss or deaths noted
[18]
  activity in the SJSA-1 in vitro viability assay: no activity

## CC(=O)N[C@@H](CC(C)C)C(=O)N[C@H](C(=O)N[C@@H](Cc1ccccc1)C(=O)N[C@]1(C)CCCCCCC=CCCC[C@@](C)(C(=O)N[C@@H](C)C(=O)N[C@@H](C)C(=O)N[C@@H](C)C(=O)N[C@@H](C)C(=O)N[C@@H](C)C(=O)N[C@@H](C)C(=O)N[C@H](C)C(N)=O)NC(=O)[C@H](CC(C)C)NC(=O)[C@H](CCC(N)=O)NC(=O)[C@H](C)NC(=O)[C@H](Cc2c[nH]c3ccccc23)NC(=O)[C@H](Cc2ccc(O)cc2)NC(=O)[C@H](C)NC1=O)[C@@H](C)O [SP316]
[19]
  Solubility: 5000 µg/mL (≈ 2570 µM)

## CO[C@H]1C[C@@H]2CC[C@@H](C)[C@@](O)(O2)C(=O)C(=O)N2CCCC[C@H]2C(=O)O[C@H]([C@H](C)C[C@@H]2CC[C@@H](OCCO)[C@H](OC)C2)CC(=O)[C@H](C)/C=C(\C)[C@@H](O)[C@@H](OC)C(=O)[C@H](C)C[C@H](C)/C=C/C=C/C=C/1C [everolimus, reference compound]
[20]
  effect on MCF-7 cell proliferation: inhibited MCF-7 breast cancer cell proliferation with limited cell killing as a single agent

— patent US20200369728A1, “PEPTIDOMIMETIC MACROCYCLES AND USES THEREOF” (Aileron Therapeutics, Inc., priority 2015, published 2020)
